Like-named read-outs stand apart in the source and are kept apart here.
Legend:
HSV-2 [1] = experiment: HSV-2 inhibition assay (plaque reduction on Vero cells, pretreatment); format: cell-based, herpes simplex virus type 2; conditions: Human alphaherpesvirus 2, Vero, pretreatment condition
H1N1 clinical = experiment: Influenza inhibition assay (ICC on MDCK cells); format: cell-based; conditions: Influenza A virus, dose–response
HSV-2 [2] = experiment: Growth of viruses in the presence of compounds (posttreatment), HSV-2; format: cell-based, herpes simplex virus type 2; conditions: posttreatment condition, Vero cells
H3N2 = experiment: Influenza inhibition assay (ICC on MDCK cells, pretreatment); format: cell-based; conditions: Influenza A virus
HSV-1 [3] = experiment: HSV-1 inhibition assay (plaque reduction on Vero cells); format: cell-based, herpes simplex virus type 1; conditions: Human alphaherpesvirus 1, dose–response
Protocol: The inhibitory effect of compounds on HSV-1 was evaluated by plaque reduction assay. Vero cells were plated 24 h before the experiment in 24-well plates at a density of 10^5 cells/well. Serial dilutions of compounds in DMEM medium (2% FBS, 1% P/S) were prepared, followed by the addition of aliquots of HSV-1 such that the final titer of the virus is […] (with MOI = 0.0005). Compounds/virus mixtures were incubated at 37 °C for 1 h and added to the cells (250 μL/well). Followed by incubation at 37 °C for 1 h, the viral inoculum was removed. The cells were overlaid with DMEM medium containing 1.2% methylcellulose, 2% FBS, and 1% P/S. After 3 days of incubation at 37 °C, 5% CO2, the cells were fixed and stained with 0.1% crystal violet in 20% ethanol, and plaques were counted. Each group of experiments in the inhibition assay was performed in triplicate. The concentration producing a 50% reduction in plaque formation was determined using the Prism 10 software (GraphPad Software, USA) by comparing compound-treated and untreated cells. Infectivity was calculated as the number of plaques in compound-treated cells/number of plaques in untreated cells × 100%.

HSV-2 [4] = experiment: HSV-2 inhibition assay (plaque reduction on Vero cells, pretreatment); format: cell-based, herpes simplex virus type 2; conditions: for IC50: Human alphaherpesvirus 2, Vero, dose–response, Vero cells; for IC99: HSV-2 inhibition, concentration intended to inhibit infection by at least 90 and 99%
Protocol: The inhibitory effect of compounds on HSV-2 was evaluated by plaque reduction assay. Vero cells were plated 24 h before the experiment in 24-well plates with a seeding density of 10^5 cells/well. Serial dilutions of compounds in DMEM medium (2% FBS, 1% P/S) were prepared, followed by the addition of aliquots of HSV-2 such that the final titer of the virus was 200 pfu/mL (with MOI = 0.0005). Compounds/virus mixtures were incubated at 37 °C for 1 h and added to the cells (250 μL/well). Followed by incubation at 37 °C for 1 h, the viral inoculum was removed. The cells were overlaid with DMEM medium containing 1.2% methylcellulose, 2% FBS, and 1% P/S. After 48 h of incubation at 37 °C, 5% CO2, the cells were fixed and stained with 0.1% crystal violet in 20% ethanol. Finally, the plaques were counted. Each group of experiments in the inhibition assay was performed in triplicate. The concentration producing a 50% reduction in plaque formation was determined using Prism 10 software (GraphPad Software, USA) by comparing compound-treated and untreated cells. Infectivity was calculated as the number of plaques in compound-treated cells/number of plaques in untreated cells × 100%.

Flu B = experiment: Influenza inhibition assay (ICC on MDCK cells); format: cell-based; conditions: dose–response
HSV-1 [5] = test system: HSV-1
H1N1N09 = experiment: Influenza inhibition assay (ICC on MDCK cells); format: cell-based, Influenza A/Netherlands/602/2009 (H1N1); conditions: Influenza A virus, dose–response
[6] = Cytotoxicity assay on Vero cells (MTS); format: cell-based; conditions: African green monkey
Protocol: Cytotoxicity assay was performed on the Vero cell line with the MTS assay. The cells were plated for 24 h in DMEM medium containing 10% FBS and 1% penicillin/streptomycin with a seeding density of 2 × 10^4 per well in a 96-well plate. […] Then, the cells were washed with PBS twice, followed by the addition of 20 μL MTS reagents together with 80 μL DMEM medium. They were then incubated at 37 °C for 4 h. The cell viability was checked by absorbance at 490 nm with a plate reader.

[7] = Cytotoxicity assay for MDCK (MTT); format: cell-based; conditions: dog, MDCK cells
Protocol: MTT assay was used to evaluate the cytotoxicity on MDCK cells. 10^4 cells per well were seeded in a 96-well plate 1 day before the assay. A dose range of each drug (from 4.11 μM to 1000 μM) was added to the cells in serum-free medium for MDCK cells. The antivirals were incubated on the cells for 24 h at 37 °C. After incubation, the cells were washed, and MTT reagent (Promega) was added to the cells for 4 h at 37 °C according to the manufacturer’s instructions. The cells were then washed, and 50 μL of DMSO was added to free the reagent. Subsequently, the absorbance was read at 579 nm. Percentages of viability were calculated by comparing the absorbance in treated wells and untreated conditions.

[8] = target: glycoprotein D (gD) of HSV; experiment: Isothermal titration calorimetry with glycoprotein D; format: binding; conditions: ITC, 25°C
Protocol: Isothermal titration calorimetry (ITC) experiments were conducted using ITC200 instruments (GE Healthcare, USA) equipped with a 200 μL sample cell and a 40 μL syringe. Thirteen injections were applied. The first data point was excluded. BSA protein and viral protein concentrations in the cell were approximately 50 μM and 1 mg/mL, respectively, and ligand concentrations in the syringe were roughly 2 mM. They were centrifuged at 2000g for 2 min to remove bubbles. The titration was performed at 25 or 37 °C, with data analyzed using MicroCal PEAQ ITC software. Baseline correction was applied, and Nitpic/Sedphat was used for automated integration to ensure precise binding parameter determination.

HSV-2 [9] = experiment: HSV-2 virucidal assay; format: cell-based, herpes simplex virus type 2; conditions: virucidal titration at 90–99% viral inhibition concentration, Vero cells
[10] = Partition coefficient octanol/water (UV-vis); format: physicochemical
Protocol: UV–vis spectroscopy was employed first to determine the correct dilution of all compounds. The seven compounds in this study were B3C11SO4, B3C11SO3, B3C6SO3, B3C6SO4, C4C11SO4, C4C11SO3, and C4C3SO3. The protocol is the same for all the compounds: in the beginning, all compounds were dissolved in water at a concentration of 1 mg/mL. The solution was put into a quartz cuvette and then into the UV–vis spectrometer, where the absorbance from wavelengths 600 to 190 nm was investigated. All of the samples presented a peak in absorbance around 200 nm. The samples were diluted further until the absorbance peak reached values near 0.90.
A biphasic solution composed of 1.5 mL of a water solution of antiviral +1.5 mL of octanol was thoroughly mixed for 60 min. After the mixing, the two phases were separated by centrifugation for 1 min using a benchtop centrifuge at 5000 rpm. The water phase saturated in octanol and the octanol phase saturated with water were extracted and characterized by UV–vis spectrometry.
The partition coefficient (log P) was then calculated using formula : logP=log(Absorbanceofoctanolphase/Absorbanceofwaterphase) 1

BSA = target: T1, BSA (Bos taurus, UniProt P02769); experiment: Isothermal titration calorimetry with BSA; format: binding, bovine; conditions: ITC, H2O
T1 construct: purchased Sigma-Aldrich
T1 sequence (P02769 25-607): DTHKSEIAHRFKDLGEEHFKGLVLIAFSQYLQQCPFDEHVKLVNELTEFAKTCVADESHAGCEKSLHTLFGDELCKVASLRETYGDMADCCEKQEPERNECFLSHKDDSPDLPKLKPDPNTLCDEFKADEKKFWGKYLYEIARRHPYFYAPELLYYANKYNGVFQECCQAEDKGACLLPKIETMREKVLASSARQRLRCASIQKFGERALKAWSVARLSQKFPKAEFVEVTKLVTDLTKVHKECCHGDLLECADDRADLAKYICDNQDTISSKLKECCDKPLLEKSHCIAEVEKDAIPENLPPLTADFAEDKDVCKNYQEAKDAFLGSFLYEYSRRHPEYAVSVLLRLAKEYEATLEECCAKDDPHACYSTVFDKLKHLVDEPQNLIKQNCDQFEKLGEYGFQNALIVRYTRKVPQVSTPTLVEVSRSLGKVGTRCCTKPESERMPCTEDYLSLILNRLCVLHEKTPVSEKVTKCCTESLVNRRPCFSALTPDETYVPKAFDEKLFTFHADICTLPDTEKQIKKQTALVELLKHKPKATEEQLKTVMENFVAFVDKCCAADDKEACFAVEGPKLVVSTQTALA

[11] = CMC assay (conductivity method); format: physicochemical; conditions: in water
Protocol: The CMC of antiviral compounds was measured by the conductivity method. Antiviral compounds were diluted into water at different concentrations, and the conductivity (μS/cm) was measured at each concentration with a conductivity meter (Mettler Toledo, Switzerland). The CMC was identified as the point on the conductivity-concentration plot where the slope changed.

HSV-2 [12] = test system: HSV-2; set-up: method as in Zhu et al., 2024 (citation number not given); conditions: earlier paper of the authors on benzene-core MEIs; ref Zhu et al., 2024 (citation number not given); read-out: IC50 against HSV-2; cited from earlier work
[13] = dose–response, read-out: IC50 H3N2
[14] = pretreatment condition, read-out: pretreatment IC50, H3N2

Row | SMILES | IC50 (HSV-2 [1]) | IC50 (H1N1 clinical) | IC50 (HSV-2 [2]; Human alphaherpesvirus 2, Vero) | IC50 (H3N2; [13]) | IC50 (H3N2; [14]) | IC50 (HSV-1 [3]) | IC50 (HSV-2 [4]) | IC50 (Flu B) | Virucidal activity, V-1 (HSV-1 [5]) | IC50 (H1N1N09) | CC50 at 48 h [6] | CC50 at 24 h [7] | Kd [8] | Virucidal activity, HSV-2 (HSV-2 [9]) | logP [10] | N (binding sites, BSA) (BSA; 25 °C (Table 5)) | ΔG (BSA) (BSA; 25 °C (Table 5)) | ΔH (BSA) (BSA; 25 °C (Table 5)) | –ΔTS (BSA) (BSA; 25 °C (Table 5)) | CMC [11] | further results
1 | O=S(=O)(O)CCCCCCSCc1cc(CSCCCCCCS(=O)(=O)O)cc(CSCCCCCCS(=O)(=O)O)c1 [B3C6SO3] | 487 µM | > 1 mM | 180 µM | > 1 mM | > 1 mM | 502.3 ± 2.15 µM | 487.3 ± 2.19 µM | > 1 mM | S | > 1000 µM | > 1 mM | > 1 mM | 14.2 µM | S | -2.39 | no binding | no binding | no binding | no binding | 882.2 ± 18.9 µM | IC50 (HSV-2 [2]): 181 ± 2.06 µM; K d (BSA) (BSA; 25 °C (Table 5)): no binding
2 | O=S(=O)(O)OCCCCCCSCc1cc(CSCCCCCCOS(=O)(=O)O)cc(CSCCCCCCOS(=O)(=O)O)c1 [B3C6SO4] | 52.9 ± 1.9 µM | > 1 mM | 56.9 ± 1.48 µM | > 1 mM | 0.3469 ± 0.00194 mM | 208 ± 31.4 µM | 52.9 ± 1.9 µM | > 1 mM |  | 346.9 ± 1.94 µM | > 1 mM | > 1 mM | 28.1 µM |  | -1.79 |  |  |  |  | 1390 ± 45.6 µM | IC99 (HSV-2 [4]): 1328 ± 1.9 µM; IC50 (HSV-2 [12]): 78.4 µM; -∆TS (BSA) (BSA; 25 °C (Table S3)): 7.2 kcal/mol; Kd (BSA; 25 °C (Table S3)): 7.27 µM; N (BSA) (BSA; 25 °C (Table S3)): 1.69; ∆G (BSA) (BSA; 25 °C (Table S3)): -7.29 kcal/mol; ∆H (BSA) (BSA; 25 °C (Table S3)): -14.5 kcal/mol; -∆TS (BSA) (BSA; 37 °C (Table S3)): 0.938 kcal/mol; Kd (BSA; 37 °C (Table S3)): 1.4 µM; N (BSA) (BSA; 37 °C (Table S3)): 1.3; ∆G (BSA) (BSA; 37 °C (Table S3)): -7.99 kcal/mol; ∆H (BSA) (BSA; 37 °C (Table S3)): -8.93 kcal/mol
3 | O=S(=O)(O)CCCSCc1cc2c(cc1CSCCCS(=O)(=O)O)OCCOCCOc1cc(CSCCCS(=O)(=O)O)c(CSCCCS(=O)(=O)O)cc1OCCOCCO2 [C4C3SO3] | 173.4 ± 1.1 µM |  | 69.1 ± 1.01 µM | > 1 mM | > 1 mM | 551.9 ± 2 µM | 173.4 ± 1.1 µM | > 1 mM | S | > 1000 µM | > 1 mM | > 1 mM |  | S | -2.45 | 0.5 | –5.73 kcal/mol | –7.34 kcal/mol | 1.61 kcal/mol | 462.69 ± 57 µM | IC99 (HSV-2 [4]): 446 ± 1.1 µM; Kd (BSA; 25 °C (Table 5), read-out: K d (BSA)): 63 µM; -∆TS (BSA) (BSA; 25 °C (Table S3)): 1.61 kcal/mol; N (BSA) (BSA; 25 °C (Table S3)): 0.5; ∆G (BSA) (BSA; 25 °C (Table S3)): -5.73 kcal/mol; ∆H (BSA) (BSA; 25 °C (Table S3)): -7.34 kcal/mol; -∆TS (BSA) (BSA; 37 °C (Table S3)): 24.6 kcal/mol; Kd (BSA; 37 °C (Table S3)): 52.1 µM; N (BSA) (BSA; 37 °C (Table S3)): 0.397; ∆G (BSA) (BSA; 37 °C (Table S3)): -6.08 kcal/mol; ∆H (BSA) (BSA; 37 °C (Table S3)): -30.6 kcal/mol
